Assay results reported in US7056947B2, “Aza-peptide epoxides” (Georgia Tech Research Corp., priority 2002, dated 2006).

Tests used:
caspase-1 = target: T1, caspase-1 (Homo sapiens, UniProt P29466, D381E); assay: Caspase-1 progress curve assay; assay type: biochemical; conditions: D381E variant, substrate Ac-YVAD-AMC, 30° C.
T1 construct: His tag (N); made in house; host or cells: E. coli
T1 sequence (P29466 120-297 limits assumed): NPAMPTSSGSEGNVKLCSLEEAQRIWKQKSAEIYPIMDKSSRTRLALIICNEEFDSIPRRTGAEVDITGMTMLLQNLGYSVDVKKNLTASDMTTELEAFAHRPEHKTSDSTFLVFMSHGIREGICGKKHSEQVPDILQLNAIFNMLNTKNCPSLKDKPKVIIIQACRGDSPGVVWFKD
T1 sequence (P29466 317-404 D381E limits assumed): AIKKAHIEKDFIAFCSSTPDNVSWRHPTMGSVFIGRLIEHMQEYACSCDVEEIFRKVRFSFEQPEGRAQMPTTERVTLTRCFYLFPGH
Excerpt: Caspase-1. The preparation of the autolytically stable caspase-1 variant used in these studies has been described previously. Briefly, the variant contains a mutation (D381E) which renders it resistant to autolytic inactivation, but has no detectable affect on enzyme activity as compared to the naturally occurring enzyme. The enzyme variant was expressed in E. coli, purified first by immobilized metal chromatography via the N-terminal N-His tag, treated with excess oxidized glutathione to stabilize the reactive thiolate, and then re-purified by size-exclusion chromatography.
Inhibition data was measured using the progress curve assay method. Serial dilutions of each compound were prepared using an initial 8-fold dilution of a DMSO stock into HGE (100 mM HEPES,20% glycerol v/v, 0.5 mM EDTA), followed by seven serial two-fold dilutions into HGE and 12.5% DMSO, thus maintaining constant DMSO through the dilution series. Ten μL of diluted stocks or of vehicle (HGE and 12.5% DMSO) were placed in triplicate onto a 96-well microtiter plate, allowing several compounds to be tested on each plate. The plate was covered to minimize evaporation, and the plate was pre-warmed to 30° C. for 20 minutes. Enzyme was diluted into 10.0 mL of assay buffer (HGE, 5 mM DTT, plus 15 μM Ac-YVAD-AMC, 2 nM approximate final enzyme concentration), and this activated reaction mixture was added to the plate at 90 μL/well. Progress of substrate hydrolysis was monitored for 900 s in a LabSystems (Needham, Mass.) Fluoroskan Ascent fluorescent plate-reader using 385 and 460 nm excitation and emission filters, respectively, and a photomultiplier gain setting of 10. Triplicate curves were averaged and fit by nonlinear regression to the equation for irreversible inactivation shown below.
[formula] where F0 was routinely fixed to zero, since fluorescence values were always adjusted to an origin of 0. The second order rate constant kon (M^−1s^−1) was obtained from the slopes by linear regression, and errors represent the standard deviation of the regression slope.

caspase-3 = target: T2, caspase-3 (Homo sapiens, UniProt P42574); assay: Caspase-3 progress curve assay; assay type: biochemical; conditions: substrate Z-DEVD-AFC; NI = no inhibition
T2 construct: made in house; host or cells: E. coli
T2 sequence (P42574 29-175 limits assumed): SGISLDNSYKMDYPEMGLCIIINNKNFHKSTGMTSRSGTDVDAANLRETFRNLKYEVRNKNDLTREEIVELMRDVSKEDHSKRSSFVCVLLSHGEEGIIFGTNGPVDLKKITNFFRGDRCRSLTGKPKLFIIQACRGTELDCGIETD
T2 sequence (P42574 176-277 limits assumed): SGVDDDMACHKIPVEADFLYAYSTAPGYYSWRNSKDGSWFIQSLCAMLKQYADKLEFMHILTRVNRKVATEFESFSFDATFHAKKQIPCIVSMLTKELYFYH
Protocol: Caspase-3, -6, and -8. Caspase-3, -6 and -8 were expressed in E. coli and purified according to methods previously described by Stennicke and Salvesen. Assays using the fluorogenic substrate Z-DEVD-AFC (λex=400 nm, λem=505 nm) were carried out on a Molecular Devices fMax fluorescence microplate reader. Inhibition rates and equilibria were determined by the progress curve method. The standard 100 μL reaction was started by adding enzyme to a mixture of substrate (final concentration of Z-DEVD-AFC 100 μM) and various amounts of inhibitor in buffer (50 mM Hepes, 100 mM NaCl, 0.1% (w/v) CHAPS, sucrose 10% (w/v), and 10 mM DTT, at pH 7.4). The caspases were pre-activated for 10 min at 37° C. in the presence of 10 mM DTT.

| SMILES | k2 caspase-1 (caspase-1) | k2 caspase-3 (caspase-3) |
| --- | --- | --- |
| CC(C)[C@H](NC(=O)[C@H](CCC(=O)O)NC(=O)OCc1ccccc1)C(=O)NN(CC(=O)O)C(=O)[C@H]1O[C@@H]1C(=O)NCCc1ccccc1 [24h, (2S,3S)-2-(2-Phenethylcarbamoyl)-3-(N^2-(N-benzyloxycarbonylglutamylvalyl)-N^1-carboxymethylhydrazinocarbonyl)oxirane] | 41070 ± 440 M⁻¹ s⁻¹ | 27330 ± 5430 M⁻¹ s⁻¹ |
| CC(C)[C@H](NC(=O)CCc1ccccc1)C(=O)N[C@@H](C)C(=O)NN(CC(=O)O)C(=O)[C@H]1O[C@@H]1C(=O)NCc1ccccc1 [23g (S,S), (2S,3S)-2-(2-Benzylcarbamoyl)-3-(N^2-(3-phenylpropanoylvalylalanyl)-N^1-carboxymethylhydrazinocarbonyl)oxirane] | 65900 ± 9153 M⁻¹ s⁻¹ | 1610 ± 5 M⁻¹ s⁻¹ |
| CCOC(=O)[C@H]1O[C@@H]1C(=O)N(CC(=O)O)NC(=O)[C@@H](NC(=O)[C@H](CCC(=O)O)NC(=O)OCc1ccccc1)C(C)C [24c, (2S,3S)-3-(N^2-(N-Benzyloxycarbonylglutamylvalyl)-N^1-carboxymethylhydrazinocarbonyl)oxirane-2-carboxylic Acid Ethyl Ester] | 58500 M⁻¹ s⁻¹ | 50500 ± 2075 M⁻¹ s⁻¹ |
| CCOC(=O)[C@H]1O[C@@H]1C(=O)N(CC(=O)O)NC(=O)[C@@H](NC(=O)[C@H](CCC(=O)O)NC(=O)[C@H](CC(=O)O)NC(=O)OCc1ccccc1)C(C)C [25c (S,S), (2S,3S)-3-(N^2-(N-Benzyloxycarbonylaspartylglutamylvalyl)-N^1-carboxymethylhydrazinocarbonyl)oxirane-2-carboxylic Acid Ethyl Ester] | 11840 ± 1214 M⁻¹ s⁻¹ | 1074440 ± 154710 M⁻¹ s⁻¹ |
| CC(C)[C@H](NC(=O)CCc1ccccc1)C(=O)N[C@@H](C)C(=O)NN(CC(=O)O)C(=O)[C@H]1O[C@@H]1C(=O)NC(Cc1ccc(O)cc1)C(N)=O (stereo partly drawn) [23m, (2S,3S)-2-(2-Amido-phenyl(4-hydroxy)ethylcarbamoyl)-3-(N^2-(3-phenylpropanoylvalylalanyl)-N^1-carboxymethylhydrazinocarbonyl)oxirane] | 3245 ± 2330 M⁻¹ s⁻¹ | 87 ± 4 M⁻¹ s⁻¹ |
| CC(C)CC(NC(=O)[C@H]1O[C@@H]1C(=O)N(CC(=O)O)NC(=O)[C@H](C)NC(=O)[C@@H](NC(=O)CCc1ccccc1)C(C)C)C(N)=O (stereo partly drawn) [23k, (2S,3S)-2-(3-Methyl-1-amido-butylcarbamoyl)-3-(N^2-(3-phenylpropanoylvalylalanyl)-N^1-carboxymethylhydrazinocarbonyl)oxirane] | 26090 ± 2562 M⁻¹ s⁻¹ | 420 ± 6 M⁻¹ s⁻¹ |
| CCOC(=O)[C@H]1O[C@@H]1C(=O)N(CC(=O)O)NC(=O)[C@H](C)NC(=O)[C@@H](NC(=O)CCc1ccccc1)C(C)C [23c (S,S), (2S,3S)-3-(N^2-(3-Phenylpropanoylvalylalanyl)-N^1-carboxymethylhydrazinocarbonyl)oxirane-2-carboxylic Acid Ethyl Ester] | 32200 ± 14560 M⁻¹ s⁻¹ | 1040 ± 80 M⁻¹ s⁻¹ |
| CC(C)[C@H](NC(=O)CCc1ccccc1)C(=O)N[C@@H](C)C(=O)NN(CC(=O)O)C(=O)[C@H]1O[C@@H]1C(=O)NCC(O)c1ccccc1 (stereo partly drawn) [23i (S,S), (2S,3S)-2-(2-Hydroxy-2-phenylethylcarbamoyl)-3-(N^2-(3-phenylpropanoylvalylalanyl)-N^1-carboxymethylhydrazinocarbonyl)oxirane] | 12260 ± 19 M⁻¹ s⁻¹ | 510 ± 100 M⁻¹ s⁻¹ |
| CC(C)[C@H](NC(=O)CCc1ccccc1)C(=O)N[C@@H](C)C(=O)NN(CC(=O)O)C(=O)[C@H]1O[C@@H]1C(=O)NC(Cc1ccccc1)C(N)=O (stereo partly drawn) [23l (S,S), (2S,3S)-2-(1-Amido-phenethylcarbamoyl)-3-(N^2-(3-phenylpropanoylvalylalanyl)-N^1-carboxymethylhydrazinocarbonyl)oxirane] | 32740 ± 9937 M⁻¹ s⁻¹ | 625 ± 160 M⁻¹ s⁻¹ |
| CC(C)[C@H](NC(=O)CCc1ccccc1)C(=O)N[C@@H](C)C(=O)NN(CC(=O)O)C(=O)[C@H]1O[C@@H]1C(=O)OCCc1ccccc1 [23e, (2S,3S)-3-(N^2-(3-Phenylpropanoylvalylalanyl)-N^1-carboxymethylhydrazinocarbonyl)oxirane-2-carboxylic Acid Phenethyl Ester] | 56640 ± 9322 M⁻¹ s⁻¹ | 2110 ± 50 M⁻¹ s⁻¹ |

Next, values leading:

| k2 caspase-1 (caspase-1) | k2 caspase-3 (caspase-3) | SMILES |
| --- | --- | --- |
| 18140 ± 4085 M⁻¹ s⁻¹ | 6475 ± 240 M⁻¹ s⁻¹ | CC[C@H](C)[C@H](NC(=O)OCc1ccccc1)C(=O)N[C@@H](CCC(=O)O)C(=O)N[C@H](C(=O)NN(CC(=O)O)C(=O)[C@@H]1O[C@H]1C(=O)NCc1ccccc1)[C@@H](C)O [27g, (2R,3R)-2-(2-Benzylcarbamoyl)-3-(N^2-(N-benzyloxycarbonylisoleucylglutamylthreonyl)-N^1-carboxymethylhydrazinocarbonyl)oxirane] |
| 12372 M⁻¹ s⁻¹ | 4080 ± 360 M⁻¹ s⁻¹ | CCOC(=O)[C@H]1O[C@@H]1C(=O)N(CC(=O)O)NC(=O)[C@@H](NC(=O)[C@H](CCC(=O)O)NC(=O)[C@@H](NC(=O)OCc1ccccc1)[C@@H](C)CC)[C@@H](C)O [27c (S,S), (2S,3S)-3-(N^2-(N-Benzyloxycarbonylisoleucylglutamylthreonyl)-N^1-carboxymethylhydrazinocarbonyl)oxirane-2-carboxylic Acid Ethyl Ester] |
| 25420 ± 4013 M⁻¹ s⁻¹ | 1097820 ± 94860 M⁻¹ s⁻¹ | CC(C)[C@H](NC(=O)[C@H](CCC(=O)O)NC(=O)[C@H](CC(=O)O)NC(=O)OCc1ccccc1)C(=O)NN(CC(=O)O)C(=O)[C@H]1O[C@@H]1C(=O)NCc1ccccc1 [25g, (2S,3S)-2-(2-Benzylcarbamoyl)-3-(N^2-(N-benzyloxycarbonylaspartylglutamylvalyl)-N^1-carboxymethylhydrazinocarbonyl)oxirane] |
| 54690 ± 15913 M⁻¹ s⁻¹ | 1915200 ± 209200 M⁻¹ s⁻¹ | CC(C)[C@H](NC(=O)[C@H](CCC(=O)O)NC(=O)[C@H](CC(=O)O)NC(=O)OCc1ccccc1)C(=O)NN(CC(=O)O)C(=O)[C@H]1O[C@@H]1C(=O)OCc1ccccc1 [25d, (2S,3S)-3-(N^2-(N-Benzyloxycarbonylaspartylglutamylvalyl)-N^1-carboxymethylhydrazinocarbonyl)oxirane-2-carboxylic Acid Benzyl Ester] |
| 45788 M⁻¹ s⁻¹ | 9545 ± 960 M⁻¹ s⁻¹ | CC[C@H](C)[C@H](NC(=O)OCc1ccccc1)C(=O)N[C@@H](CCC(=O)O)C(=O)N[C@H](C(=O)NN(CC(=O)O)C(=O)[C@H]1O[C@@H]1C(=O)OCc1ccccc1)[C@@H](C)O [27d (S,S), (2S,3S)-3-(N^1-(N-Benzyloxycarbonylisoleucylglutamylthreonyl)-N^1-carboxymethylhydrazinocarbonyl)oxirane-2-carboxylic Acid Benzyl Ester] |
| 43500 ± 2150 M⁻¹ s⁻¹ | 3520 ± 600 M⁻¹ s⁻¹ | CC(C)C[C@H](NC(=O)OCc1ccccc1)C(=O)N[C@@H](CCC(=O)O)C(=O)N[C@H](C(=O)NN(CC(=O)O)C(=O)[C@H]1O[C@@H]1C(=O)OCc1ccccc1)[C@@H](C)O [26d, (2S,3S)-3-(N^2-(N-Benzyloxycarbonylleucylglutamylthreonyl)-N^1-carboxymethylhydrazinocarbonyl)oxirane-2-carboxylic Acid Benzyl Ester] |
